Experimental data from patent publication US20130078287A1 (Horizon Pharma USA, Inc., priority 2010, published 2013).
Marks after values point to notes of the source that are not given here.

Experiments:
[1] = test system: subjects expected to require daily NSAID therapy; assay: REDUCE-1 study: endoscopically diagnosed gastric, duodenal and UGI ulcers; type: in vivo, human; settings: for Proportion of subjects with Duodenal Ulcer / Proportion of subjects with Gastric Ulcer / Proportion of subjects with UGI Ulcer / UGI Ulcer: Subjects with Low-dose Aspirin Use / UGI Ulcer: Subjects with Prior Ulcer: REDUCE-1, 24 weeks
Procedure: Subjects were deemed a treatment failure and terminated early from the study in the event they developed an endoscopically diagnosed UGI ulcer. Subjects who terminated early for reasons other than development of an endoscopically diagnosed UGI ulcer were to undergo an endoscopic examination at a termination visit that was conducted as soon as possible after administration of their final dose of study drug. The predefined population for primary analyses of ulcers was all subjects with ≧1 follow-up study endoscopy.

[2] = test system: subjects expected to require daily NSAID therapy; assay: REDUCE-1 study: adverse events
Source text: Randomization was stratified based on aspirin/anticoagulant therapy and prior ulcer history.
Secondary endpoints were UGI ulcers, duodenal ulcers, and serious GI complications

[3] = test system: subjects expected to require daily NSAID therapy; assay: Integrated REDUCE-1 and REDUCE-2: adverse events
[4] = crude proportion, listed as ibuprofen
[5] = life table estimate, listed as ibuprofen
[6] = REDUCE-1, early drop-outs imputed as treatment failures
[7] = integrated REDUCE-1 and REDUCE-2

Compound: CC(C)Cc1ccc(C(C)C(=O)O)cc1 (stereo not shown) [Ibuprofen, 2-(p-isobutylphenyl)propionic acid]
- Proportion of subjects with Duodenal Ulcer ([1]; crude proportion): 14/262 (5.3%);
- Proportion of subjects with Gastric Ulcer ([1]; crude proportion): 52/262 (19.8%);
- Proportion of subjects with UGI Ulcer ([1]; crude proportion): 61/262 (23.3%)*;
- UGI Ulcer: Subjects with Low-dose Aspirin Use ([1]; crude proportion): 10/32 (31.3%);
- UGI Ulcer: Subjects with Prior Ulcer ([1]; crude proportion): 4/15 (26.7%);
- Proportion of subjects with Duodenal Ulcer [1, 4]: 5.3%
- Proportion of subjects with Gastric Ulcer [1, 4]: 19.8%
- Proportion of subjects with UGI Ulcer [1, 4]: 23.3%
- Proportion of subjects with Duodenal Ulcer ([1]; life table estimate): 7.1%
- Proportion of subjects with Gastric Ulcer ([1]; life table estimate): 25.3%
- Proportion of subjects with UGI Ulcer ([1]; life table estimate): 29.1%*
- UGI Ulcer: Subjects with Low-dose Aspirin Use ([1]; life table estimate): 33.3%
- UGI Ulcer: Subjects with Prior Ulcer ([1]; life table estimate): 27.3%
- Proportion of subjects with Duodenal Ulcer [1, 5]: 7.1%
- Proportion of subjects with Gastric Ulcer [1, 5]: 25.3%
- Proportion of subjects with UGI Ulcer [1, 5]: 29.1%
- Crude ulcer rate, UGI ulcer [1, 6]: 30.2%
- Crude ulcer rate, gastric ulcers [1, 6]: 26.7%
- NSAID associated serious GI complications, % of subjects ([1]; REDUCE-1, secondary efficacy endpoint): none
- AEs Leading to Discontinuation, Incidence (%) [2]: 7.7%
- AEs by Relatedness: Possibly Related, Incidence (%) [2]: 23.1%
- AEs by Relatedness: Probably Not Related, Incidence (%) [2]: 38.1%
- AEs by Severity: Life Threatening, Incidence (%) [2]: 0.7%
- AEs by Severity: Moderate, Incidence (%) [2]: 27.1%
- AEs by Severity: Severe, Incidence (%) [2]: 7.0%
- Abdominal Pain Upper, Incidence (%) [2]: 4.0%
- Any GI Event, Incidence (%) [2]: 27.4* %
- Cardiac Disorders, Incidence (%) [2]: 1.3%
- Constipation, Incidence (%) [2]: 4.3%
- Deaths, Incidence % [2]: 1/0.1%
- Diarrhea, Incidence (%) [2]: 4.3%
- Dyspepsia, Incidence (%) [2]: 7.7%
- General Disorders/Administrative Site Conditions, Incidence (%) [2]: 7.7%
- Hepatobiliary Disorders, Incidence (%) [2]: 0.0%
- Hypertension, Incidence (%) [2]: 2.3%
- Injury, Poisoning, Procedural Complications, Incidence (%) [2]: 6.0%
- Investigations, Incidence (%) [2]: 5.0%
- Musculoskeletal/connective Tissue Disorders, Incidence (%) [2]: 8.0%
- Nausea, Incidence (%) [2]: 4.3%
- Nervous System Disorders, Incidence (%) [2]: 7.0%
- Renal and Urinary Disorders, Incidence (%) [2]: 1.0%
- Respiratory, Thoracic and Mediastinal Disorders, Incidence (%) [2]: 8.7%
- SAEs leading to discontinuation, Incidence % [2]: 2/0.7%
- Subjects with at least one AE, Incidence (%) [2]: 61.2%
- Total SAEs, Incidence % [2]: 13/4.3%
- Withdrawals due to GI, Incidence (%) [2]: 5.0%
- AEs Leading to Discontinuation, Incidence (%) [3, 7]: 7.6%
- AEs by Relatedness: Possibly Related, Incidence (%) [3, 7]: 25.0%
- AEs by Relatedness: Probably Not Related, Incidence (%) [3, 7]: 33.7%
- AEs by Severity: Life Threatening, Incidence (%) [3, 7]: 0.4%
- AEs by Severity: Moderate, Incidence (%) [3, 7]: 25.0%
- AEs by Severity: Severe, Incidence (%) [3, 7]: 6.8%
- Subjects with at least one AE, Incidence (%) [3, 7]: 58.7%
- TEAE: Abdominal distension ([3]; integrated, safety population): 1.4 (7) %
- TEAE: Abdominal pain ([3]; integrated, safety population): 1.6 (8) %
- TEAE: Abdominal pain upper ([3]; integrated, safety population): 2.5 (13) %
- TEAE: Abdominal tenderness ([3]; integrated, safety population): 1.0 (5) %
- TEAE: Anaemia ([3]; integrated, safety population): 1.4 (7) %
- TEAE: Arthralgia ([3]; integrated, safety population): 1.8 (9) %
- TEAE: Back pain ([3]; integrated, safety population): 0.8 (4) %
- TEAE: Blood and lymphatic system disorders ([3]; integrated, safety population): 1.8 (9) %
- TEAE: Bronchitis ([3]; integrated, safety population): 1.2 (6) %
- TEAE: Constipation ([3]; integrated, safety population): 4.1 (21) %
- TEAE: Cough ([3]; integrated, safety population): 2.0 (10) %
- TEAE: Diarrhoea ([3]; integrated, safety population): 4.3 (22) %
- TEAE: Dizziness ([3]; integrated, safety population): 1.4 (7) %
- TEAE: Dyspepsia ([3]; integrated, safety population): 8.0 (41) %
- TEAE: Dyspnoea ([3]; integrated, safety population): 1.0 (5) %
- TEAE: Fall ([3]; integrated, safety population): 1.0 (5) %
- TEAE: Fatigue ([3]; integrated, safety population): 1.0 (5) %
- TEAE: Flatulence ([3]; integrated, safety population): 0.4 (2) %
- TEAE: Gastritis ([3]; integrated, safety population): 1.4 (7) %
- TEAE: Gastro-oesophageal reflux disease ([3]; integrated, safety population): 3.1 (16) %
- TEAE: Gastroenteritis viral ([3]; integrated, safety population): 0.8 (4) %
- TEAE: Gastrointestinal disorders ([3]; integrated, safety population): 28.4 (145) %
- TEAE: General disorders and administration site conditions ([3]; integrated, safety population): 4.5 (23) %
- TEAE: Headache ([3]; integrated, safety population): 3.3 (17) %
- TEAE: Hypertension ([3]; integrated, safety population): 2.2 (11) %
- TEAE: Infections and infestations ([3]; integrated, safety population): 20.7 (106) %
- TEAE: Influenza ([3]; integrated, safety population): 1.6 (8) %
- TEAE: Injury, poisoning and procedural complications ([3]; integrated, safety population): 5.1 (26) %
- TEAE: Insomnia ([3]; integrated, safety population): 1.0 (5) %
- TEAE: Muscle spasms ([3]; integrated, safety population): 0.4 (2) %
- TEAE: Musculoskeletal and connective tissue disorders ([3]; integrated, safety population): 6.8 (35) %
- TEAE: Musculoskeletal pain ([3]; integrated, safety population): 0.8 (4) %
- TEAE: Nasopharyngitis ([3]; integrated, safety population): 2.7 (14) %
- TEAE: Nausea ([3]; integrated, safety population): 4.7 (24) %
- TEAE: Nervous system disorders ([3]; integrated, safety population): 6.1 (31) %
- TEAE: Oedema peripheral ([3]; integrated, safety population): 1.8 (9) %
- TEAE: Pain in extremity ([3]; integrated, safety population): 0.8 (4) %
- TEAE: Pharyngolaryngeal pain ([3]; integrated, safety population): 1.2 (6) %
- TEAE: Psychiatric disorders ([3]; integrated, safety population): 3.1 (16) %
- TEAE: Rash ([3]; integrated, safety population): 1.0 (5) %
- TEAE: Respiratory, thoracic and mediastinal disorders ([3]; integrated, safety population): 7.0 (36) %
- TEAE: Sinus congestion ([3]; integrated, safety population): 1.4 (7) %
- TEAE: Sinusitis ([3]; integrated, safety population): 2.7 (14) %
- TEAE: Skin and subcutaneous tissue disorders ([3]; integrated, safety population): 3.5 (18) %
- TEAE: Stomach discomfort ([3]; integrated, safety population): 1.6 (8) %
- TEAE: Upper respiratory tract infection ([3]; integrated, safety population): 4.1 (21) %
- TEAE: Urinary tract infection ([3]; integrated, safety population): 2.3 (12) %
- TEAE: Vascular disorders ([3]; integrated, safety population): 2.7 (14) %
- TEAE: Vomiting ([3]; integrated, safety population): 1.8 (9) %
- Total Subjects With at Least One TEAE ([3]; integrated, safety population): 58.7 (300) %
